From publication PMC11550483 (2024)

These compounds were tested against SARS2 M^pro (Severe acute respiratory syndrome coronavirus 2, UniProt P0DTD1, P3395H).
Type: biochemical, SARS-CoV-2

| Compound | % inhibition (20 µM) biochemical |
| --- | --- |
| COc1ccc(C2=NN3C(C2)c2ccccc2OC3C(C)C)cc1 (centres unmarked) [MWAC-0001724, COc1ccc(cc1)C2=NN3C(Oc4ccccc4C3C2)C(C)C] | 7% |
| CC1=CC(C)(C)N2C(=O)C3(Nc4ccccc4CO3)c3cc(C)cc1c32 (centres unmarked) [MWAC-0001770, CC1=CC(C)(C)N2C(=O)C3(Nc4ccccc4CO3)c5cc(C)cc1c25] | 0.845% |
| CCOc1ccc2nc(SC3CC(=O)N(c4ccccc4C(F)(F)F)C3=O)sc2c1 (centres unmarked) [MWAC-0001714, CCOc1ccc2nc(SC3CC(=O)N(C3=O)c4ccccc4C(F)(F)F)sc2c1] | 6% |
| Cc1cc(S(=O)(=O)NC(C)C)ccc1OCC(=O)Nc1cccc([N+](=O)[O-])c1 [MWAC-0001775, CC(C)NS(=O)(=O)c1ccc(OCC(=O)Nc2cccc(c2)[N+](=O)[O-])c(C)c1] | 3.17% |
| Cc1ccc(OCCN2C(=O)C(=O)c3ccccc32)cc1 [MWAC-0001827, Cc1ccc(OCCN2C(=O)C(=O)c3ccccc23)cc1] | 4.54% |
| CCOc1ccccc1C1CC(c2ccccc2)Nc2ncnn21 (centres unmarked) [MWAC-0001745, CCOc1ccccc1C2CC(Nc3ncnn23)c4ccccc4] | 5.37% |
| CC1=C(C(=O)OC(C)C)C(c2ccc(F)cc2)C2=C(CC(c3cccs3)CC2=O)N1 (centres unmarked) [MWAC-0001729, CC(C)OC(=O)C1=C(C)NC2=C(C1c3ccc(F)cc3)C(=O)CC(C2)c4cccs4] | 0% |
| Cc1ccc2nc(-c3ccc(SCC(=O)Nc4nc(C)cs4)nc3)[nH]c2c1 [MWAC-0001838, Cc1ccc2nc([nH]c2c1)c3ccc(SCC(=O)Nc4nc(C)cs4)nc3] | 2.56% |
| N#C/C(=C\c1c[nH]c2ccccc12)C(=O)NC1CC1 [MWAC-0001828, O=C(NC1CC1)\C(=C\c2c[nH]c3ccccc23)\C#N] | 11% |
| CCOC(=O)CS(=O)(=O)c1ccc(C(=O)N2CCN(C(=O)c3ccco3)CC2)cc1[N+](=O)[O-] [MWAC-0001736, CCOC(=O)CS(=O)(=O)c1ccc(cc1[N+](=O)[O-])C(=O)N2CCN(CC2)C(=O)c3occc3] | 14% |
| Cc1cccc(NC(=O)COc2ccc(Br)cc2/C=N/O)c1 [MWAC-0001791, Cc1cccc(NC(=O)COc2ccc(Br)cc2\C=N\O)c1] | 0.745% |
| CCOC(=O)c1c(NC(=O)CCl)sc2c1CC(C)(C)NC2(C)C [MWAC-0001854, CCOC(=O)c1c(NC(=O)CCl)sc2c1CC(C)(C)NC2(C)C] | 98% |
| CCOC(=O)c1[nH]c(C)c(C(=O)Nc2ccccc2SC)c1C [MWAC-0001737, CCOC(=O)c1[nH]c(C)c(C(=O)Nc2ccccc2SC)c1C] | 3.56% |
| Cc1cccc(/N=C2/NC(=O)/C(=C\c3ccc(N(C)C)cc3)S2)c1 [MWAC-0001734, CN(C)c1ccc(\C=C/2\S\C(=N/c3cccc(C)c3)\NC2=O)cc1] | 9% |
| Cc1cc(C)c2oc(-c3ccc(C)c(N)c3)nc2c1 [MWAC-0001715, Cc1cc(C)c2oc(nc2c1)c3ccc(C)c(N)c3] | 0% |
| COc1ccc(C2(C)CC(C)(C)N(C(C)=O)c3ccccc32)cc1 (centres unmarked) [MWAC-0001751, COc1ccc(cc1)C2(C)CC(C)(C)N(C(=O)C)c3ccccc23] | 4.45% |
| CCCN1C(=O)C2(c3cc(C)ccc31)N1CC3(C)CN2CC(C)(C1)C3=O (centres unmarked) [MWAC-0001760, CCCN1C(=O)C2(N3CC4(C)CN2CC(C)(C3)C4=O)c5cc(C)ccc15] | 7% |
| Cc1ccccc1C(=O)Nc1ccc(Br)cc1 [MWAC-0001804, Cc1ccccc1C(=O)Nc2ccc(Br)cc2] | 2.44% |
| Cc1nn(CC(=O)NCc2ccc3c(c2)OCO3)c(=O)c2c1cnn2C(C)(C)C [MWAC-0000539, CC1=NN(CC(=O)NCc2ccc3OCOc3c2)C(=O)c4c1cnn4C(C)(C)C] | 19% |
| C#CCN1C(=O)C(O)(CC(=O)c2ccc(F)cc2)c2ccccc21 (centres unmarked) [MWAC-0001730, OC1(CC(=O)c2ccc(F)cc2)C(=O)N(CC#C)c3ccccc13] | 8% |
| Cc1cc(C(=O)CCl)c(C)n1Cc1ccco1 [MWAC-0001817, Cc1cc(C(=O)CCl)c(C)n1Cc2occc2] | 62% |
| COc1cccc(Nc2ccc3ccccc3c2)c1 [MWAC-0001865, COc1cccc(Nc2ccc3ccccc3c2)c1] | 0% |
| COc1ccc(C2=NN3C(C2)c2ccccc2OC3c2ccc(C(C)(C)C)cc2)cc1 (centres unmarked) [MWAC-0001719, COc1ccc(cc1)C2=NN3C(C2)c4ccccc4OC3c5ccc(cc5)C(C)(C)C] | 5% |
| CCC(=O)OCC(=O)NCc1ccc2c(c1)OCO2 [MWAC-0001887, CCC(=O)OCC(=O)NCc1ccc2OCOc2c1] | 0% |
| CCOc1ccccc1OCCCOc1ccccc1C=O [MWAC-0001794, CCOc1ccccc1OCCCOc2ccccc2C=O] | 2.44% |
| O=C1NC(=O)C(=Cc2cc(O)ccc2Br)C(=O)N1 [MWAC-0001754, Oc1ccc(Br)c(C=C2C(=O)NC(=O)NC2=O)c1] | 21% |
| O=[N+]([O-])c1cc(C(F)(F)F)ccc1NCCNS(=O)(=O)Cc1ccccc1 [MWAC-0001800, [O-][N+](=O)c1cc(ccc1NCCNS(=O)(=O)Cc2ccccc2)C(F)(F)F] | 3.51% |

| Compound | % inhibition (20 µM) biochemical |
| --- | --- |
| CC(C)c1cc(C(=O)Nc2ccc(Br)cc2)no1 [MWAC-0001748, CC(C)c1onc(c1)C(=O)Nc2ccc(Br)cc2] | 6% |
| Cc1ccc(C(NC(=O)CCl)c2cccs2)cc1 (centres unmarked) [MWAC-0001859, Cc1ccc(cc1)C(NC(=O)CCl)c2cccs2] | 60% |
| CCOc1ccc(/C=C2\SC(Nc3ccccc3O)=NC2=O)cc1 [MWAC-0001811, CCOc1ccc(\C=C\2/SC(=NC2=O)Nc3ccccc3O)cc1] | 5.42% |
| Cc1cccc2c1NC(=O)/C2=C\C(=O)c1cccs1 [MWAC-0001756, Cc1cccc2\C(=C\C(=O)c3cccs3)\C(=O)Nc12] | 13% |
| Cc1ccc2c(CC(=O)NCc3ccco3)coc2c1C [MWAC-0001762, Cc1ccc2c(CC(=O)NCc3occc3)coc2c1C] | 11% |
| CCN1C(=O)C(O)(CC(=O)c2ccco2)c2cc(Br)ccc21 (centres unmarked) [MWAC-0001784, CCN1C(=O)C(O)(CC(=O)c2occc2)c3cc(Br)ccc13] | 3% |
| O=C(Nc1cc([N+](=O)[O-])ccc1F)c1cccc(F)c1 [MWAC-0001808, [O-][N+](=O)c1ccc(F)c(NC(=O)c2cccc(F)c2)c1] | 1.53% |
| O=C1NC(=S)NC(=O)C1=Cc1ccccc1OS(=O)(=O)c1ccc2ccccc2c1 [MWAC-0001813, O=C1NC(=S)NC(=O)C1=Cc2ccccc2OS(=O)(=O)c3ccc4ccccc4c3] | 4.38% |
| CC1CCN(C(=O)/C=C/c2cccc3ccccc23)CC1 [MWAC-0001755, CC1CCN(CC1)C(=O)\C=C\c2cccc3ccccc23] | 4.32% |
| O=C(CCCN1C(=O)/C(=C\c2ccco2)SC1=S)Nc1cc(Cl)ccc1O [MWAC-0000351, Oc1ccc(Cl)cc1NC(=O)CCCN2C(=S)S\C(=C\c3occc3)\C2=O] | 2.86% |
| Fc1cccc(/N=c2\oc3ccccc3cc2-c2nc3ccccc3[nH]2)c1 [MWAC-0001716, Fc1cccc(c1)\N=C\2/Oc3ccccc3C=C2c4nc5ccccc5[nH]4] | 0% |
| COc1ccc(OC)c(C(=O)c2oc3ccccc3c2NC(=O)CCl)c1 [MWAC-0001832, COc1ccc(OC)c(c1)C(=O)c2oc3ccccc3c2NC(=O)CCl] | 85% |
| Cc1ccc2nc(NC(=O)c3ccc(S(C)(=O)=O)c([N+](=O)[O-])c3)sc2c1 [MWAC-0001829, Cc1ccc2nc(NC(=O)c3ccc(c(c3)[N+](=O)[O-])S(=O)(=O)C)sc2c1] | 64% |
| COc1ccc2ccccc2c1/C=C1/S/C(=N/c2ccccc2Cl)NC1=O [MWAC-0001721, COc1ccc2ccccc2c1\C=C/3\S\C(=N\c4ccccc4Cl)\NC3=O] | 6% |
| O=C1OC(NC(=O)c2ccccc2)C(NC(=O)c2ccccc2)=C1Cl (centres unmarked) [MWAC-0001833, ClC1=C(NC(=O)c2ccccc2)C(NC(=O)c3ccccc3)OC1=O] | 4% |
| Nc1ccc(C(=O)Nc2ccccc2N)cc1 [MWAC-0001836, Nc1ccc(cc1)C(=O)Nc2ccccc2N] | 5% |
| COc1ccccc1Nc1nc(-c2ccccn2)cs1 [MWAC-0001885, COc1ccccc1Nc2nc(cs2)c3ccccn3] | 0% |
| COc1ccc(-c2nnc(SCc3ccc4c(c3)OCO4)n2-c2ccccc2)cc1 [MWAC-0001881, COc1ccc(cc1)c2nnc(SCc3ccc4OCOc4c3)n2c5ccccc5] | 0% |
| CCCCOC(=O)c1c(C)oc2ccc(NS(=O)(=O)c3ccc(OC)cc3)cc12 [MWAC-0001742, CCCCOC(=O)c1c(C)oc2ccc(NS(=O)(=O)c3ccc(OC)cc3)cc12] | 11% |
| C=CCN1C(=O)C(O)(CC(=O)c2ccc(C)cc2)c2cc(Br)ccc21 (centres unmarked) [MWAC-0001738, Cc1ccc(cc1)C(=O)CC2(O)C(=O)N(CC=C)c3ccc(Br)cc23] | 4.69% |
| CC(C)(C)NC(=O)N[C@H](C(=O)N1C[C@H]2[C@@H]([C@H]1C(=O)NC(CC1CCC1)C(=O)C(N)=O)C2(C)C)C(C)(C)C (some centres unmarked) [Boceprevir, reference compound] | 73.0971% |
| Cc1ccc(Cl)cc1-n1c(SCc2ccccc2Cl)nc2[nH]ncc2c1=O [MWAC-0001740, Cc1ccc(Cl)cc1N2C(=Nc3[nH]ncc3C2=O)SCc4ccccc4Cl] | 9% |
| Cc1ccc(Cn2cc(SCC(=O)NCc3ccco3)c3ccccc32)cc1 [MWAC-0001818, Cc1ccc(Cn2cc(SCC(=O)NCc3occc3)c4ccccc24)cc1] | 3.38% |
| COc1ccccc1-c1cc(C(F)(F)F)nc(S(=O)(=O)CCCC(=O)Nc2c(F)cc(F)cc2Br)n1 [MWAC-0001726, COc1ccccc1c2cc(nc(n2)S(=O)(=O)CCCC(=O)Nc3c(F)cc(F)cc3Br)C(F)(F)F] | 43% |
| CCOC(=O)/C=C(\C)N1N=C(c2ccccc2)CC1c1ccc(N(C)C)cc1 (centres unmarked) [MWAC-0001831, CCOC(=O)\C=C(/C)\N1N=C(CC1c2ccc(cc2)N(C)C)c3ccccc3] | 5.67% |
| CCCOc1ccc(CN2C(=O)C(=O)c3ccccc32)cc1 [MWAC-0001830, CCCOc1ccc(CN2C(=O)C(=O)c3ccccc23)cc1] | 5% |
